target: T1, hT2R54 (Homo sapiens, UniProt P59534); assay: Cell-based assay for measuring hT2R54 inhibition (FLIPR calcium, Fluo4AM, acetaminophen as bitter agonist); conditions: Table 2; cells stably expressing hT2R54 and a promiscuous G protein; read-out: hT2R54 IC50
T1 construct: expressed in transfected cells; it overexpresses a promiscuous G protein
T1 sequence (P59534 1-338): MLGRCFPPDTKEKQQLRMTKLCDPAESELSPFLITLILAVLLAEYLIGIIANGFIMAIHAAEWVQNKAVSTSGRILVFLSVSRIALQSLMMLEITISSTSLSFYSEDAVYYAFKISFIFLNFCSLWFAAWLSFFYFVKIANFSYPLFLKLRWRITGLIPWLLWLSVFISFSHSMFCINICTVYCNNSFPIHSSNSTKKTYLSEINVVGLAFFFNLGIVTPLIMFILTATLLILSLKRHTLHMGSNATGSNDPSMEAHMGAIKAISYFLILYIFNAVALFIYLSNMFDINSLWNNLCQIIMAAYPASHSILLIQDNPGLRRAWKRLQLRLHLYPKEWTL
How it was run: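 Cells stably co-expressing hT2R54 and a promiscuous G protein were loaded with Fluo4AM and given acetaminophen dose series, alone or with fixed concentrations of test compound. On FLIPR, baseline was recorded for 10 s and fluorescence for 3 min after addition. IC50 is the concentration halving the acetaminophen-alone response.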

| IC50 [nM] | Compound |
| --- | --- |
| 70 | CC(=O)c1cc2c(cc1NC(=O)CN1CCN(C(=O)c3ccncc3)CC1)OCO2 [compound 39] |
| 24 | CC(=O)c1cc2c(cc1NC(=O)CN1CCN(C(=O)CC3CC3)CC1)OCO2 [compound 15] |
| 90 | CC(=O)c1cc2c(cc1NC(=O)CN1CCN(C(=O)c3ccn[nH]3)CC1)OCCO2 [compound 330] |
| 1000 | CC(=O)c1cc2c(cc1NC(=O)CN1CCN(C(=O)C3CCN(C)C3)CC1)OCO2 (stereo not drawn) [compound 321] |
| 208 | COCc1ccc(C(=O)N2CCN(CC(=O)Nc3cc4c(cc3OC)OCO4)CC2)s1 [compound 357] |
| 10 | CC(=O)c1cc2c(cc1NC(=O)CN1CCN(C(=O)c3cc(C)c(C)o3)CC1)OCO2 [compound 290] |
| 60 | COCC(=O)N1CCN(CC(=O)Nc2cc3c(cc2C(C)=O)OCCO3)CC1 [compound 338] |
| 1440 | COc1cc2c(cc1NC(=O)CN1CCN(C(=O)c3ccncc3)CC1)OCO2 [compound 96] |
| 300 | COCc1cc(C(=O)N2CCN(CC(=O)Nc3cc4c(cc3OC)OCO4)CC2)no1 [compound 400] |
| 50 | CC(=O)c1cc2c(cc1NC(=O)CN1CCN(C(=O)CC3CCOC3)CC1)OCCO2 (stereo not drawn) [compound 344] |
| 1340 | COc1cc2c(cc1NC(=O)CN1CCN(C(=O)c3cccnc3)CC1)OCO2 [compound 95] |
| 80 | COCCOCC(=O)N1CCN(CC(=O)Nc2cc3c(cc2C(C)=O)OCCO3)CC1 [compound 339] |
| 179 | COCCOCC(=O)N1CCN(CC(=O)Nc2cc3c(cc2C(C)=O)OCO3)CC1 [compound 21] |
| 15 | CCCOC(=O)N1CCN(CC(=O)Nc2cc3c(cc2C(C)=O)OCO3)CC1 [compound 3, Propyl 4-(2-((6-Acetylbenzo[d][1,3]dioxol-5-yl)amino)-2-oxoethyl)piperazine-1-carboxylate] |
| 280 | COc1cc2c(cc1NC(=O)CN1CCN(C(=O)c3ccccc3OC)CC1)OCO2 [compound 91] |
| 1800 | CC(=O)c1cc2c(cc1NC(=O)CN1CCN(C(=O)[C@@H]3CCCO3)CC1)OCCO2 [compound 341] |
| 300 | COc1cc2c(cc1NC(=O)CN1CCN(C(=O)C3CCCC3)CC1)OCO2 [compound 404] |
| 4 | CC(=O)c1cc2c(cc1NC(=O)CN1CCN(C(=O)c3ccc(C)o3)CC1)OCO2 [compound 81] |
| 60 | CC(=O)c1cc2c(cc1NC(=O)CN1CCN(C(=O)[C@H]3CCC(=O)O3)CC1)OCO2 [compound 313] |
| 1080 | COc1cc2c(cc1NC(=O)CN1CCN(C(=O)c3ccn(C)n3)CC1)OCO2 [compound 98] |
| 80 | COc1cc2c(cc1NC(=O)CN1CCN(C(=O)c3ccc(C)o3)CC1)OCO2 [compound 89] |
| 60 | CC(=O)c1cc2c(cc1NC(=O)CN1CCN(C(=O)[C@@H]3CCCO3)CC1)OCO2 [compound 314] |
| 125 | COCc1cccc(C(=O)N2CCN(CC(=O)Nc3cc4c(cc3C(C)=O)OCO4)CC2)n1 [compound 283] |
| 13 | COc1cccc(C(=O)N2CCN(CC(=O)Nc3cc4c(cc3C(C)=O)OCO4)CC2)c1 [compound 48] |
| < 1000 | COc1cc2c(cc1NC(=O)CN1CCN(C(=O)c3ccc(F)cc3)CC1)OCO2 [compound 97] |

| Compound | IC50 [nM] |
| --- | --- |
| COc1cccc(CC(=O)N2CCN(CC(=O)Nc3cc4c(cc3OC)OCO4)CC2)c1 [compound 374] | 300 |
| COc1ccc(CC(=O)N2CCN(CC(=O)Nc3cc4c(cc3C(C)=O)OCO4)CC2)cc1 [compound 62] | 200 |

same assay, conditions: Table 3; cells stably expressing hT2R54 and a promiscuous G protein; read-out: hT2R54 IC50

| IC50 [nM] | Compound |
| --- | --- |
| 500 | CC(=O)c1cc2c(cc1NC(=O)CN1CCN(Cc3cccc(F)c3)CC1)OCO2 [compound 103] |
| 4180 | CC(=O)c1cc2c(cc1NC(=O)CN1CCN(Cc3nc4ccccc4s3)CC1)OCO2 [compound 107] |
| 300 | CC(=O)c1cc2c(cc1NC(=O)CN1CCN(Cc3ccccn3)CC1)OCO2 [compound 106] |
| 90 | COc1ccc(F)cc1CN1CCN(CC(=O)Nc2cc3c(cc2C(C)=O)OCO3)CC1 [compound 105] |

same assay, conditions: Table 4; cells stably expressing hT2R54 and a promiscuous G protein; read-out: hT2R54 IC50

| IC50 [nM] | Compound |
| --- | --- |
| < 20 | CC(=O)c1cc2c(cc1NC(=O)CN1CCCC(O)C1)OCO2 (stereo not drawn) [compound 122] |
| 448 | COc1cc2c(cc1NC(=O)CN1CCC(OC)CC1)OCO2 [compound 147] |
| 103 | CCOC(=O)C1CCN(CC(=O)Nc2cc3c(cc2C(C)=O)OCO3)CC1 [compound 116, Ethyl 1-(2-((6-acetylbenzo[d][1,3]dioxol-5-yl)amino)-2-oxoethyl)piperidine-4-carboxylate] |
| 168 | CCOC(=O)C1CCC(N(C)CC(=O)Nc2cc3c(cc2C(C)=O)OCO3)CC1 (stereo not drawn) [compound 141] |
| 13 | CCOC(=O)C1CN(CC(=O)Nc2cc3c(cc2C(C)=O)OCO3)CCO1 (stereo not drawn) [compound 127] |
| 9 | CCOC(=O)C1CCCN(CC(=O)Nc2cc3c(cc2C(C)=O)OCO3)C1 (stereo not drawn) [compound 115, Ethyl 1-(2-((6-Acetylbenzo[d][1,3]dioxol-5-yl)amino)-2-oxoethyl)piperidine-3-carboxylate] |
| ~1000 | COC(=O)c1cc2c(cc1NC(=O)CN1CCN(C(=O)OC(C)(C)C)CC1)OCO2 [compound 437] |
| 179 | CCOC(=O)CCN(CC)CC(=O)Nc1cc2c(cc1C(C)=O)OCO2 [compound 136] |
| > 10000 | CCc1cc2c(cc1NC(=O)CN1CCOCC1)OCO2 [compound 447] |

same assay, conditions: Table 5; cells stably expressing hT2R54 and a promiscuous G protein; read-out: hT2R54 IC50

| IC50 [nM] | Compound |
| --- | --- |
| 668 | CCNC(=O)C1CCCN(CC(=O)Nc2cc3c(cc2OC)OCO3)C1 (stereo not drawn) [compound 450] |
| 210 | CCNC(=O)C1CCCN(CC(=O)Nc2cc3c(cc2C(C)=O)OCO3)C1 (stereo not drawn) [compound 155] |

same assay, conditions: Table 6; cells stably expressing hT2R54 and a promiscuous G protein; read-out: hT2R54 IC50

| IC50 [nM] | Compound |
| --- | --- |
| 200 | CC(=O)c1cc2c(cc1NC(=O)CNC1CCN(C(=O)CC(C)C)CC1)OCO2 [compound 177] |
| 690 | CC(=O)c1cc2c(cc1NC(=O)CN1CCC(NC(=O)c3ccco3)CC1)OCO2 [compound 172] |

same assay, conditions: Table 8; read-out: hT2R54 IC50

| IC50 [nM] | Compound |
| --- | --- |
| 1200 | COC(=O)c1cc2c(cc1NC(=O)CC1CCCN(C(C)=O)C1)OCCO2 (stereo not drawn) [compound 508] |
| 150 | COCc1ccc(C(=O)N2CCC(CC(=O)Nc3cc4c(cc3C(C)=O)OCCO4)CC2)o1 [compound 489] |
| 16 | CCCC(=O)N1CCCC(CC(=O)Nc2cc3c(cc2C(C)=O)OCO3)C1 (stereo not drawn) [compound 204] |
| 188 | COCc1cccc(C(=O)N2CCC(CC(=O)Nc3cc4c(cc3C(C)=O)OCCO4)CC2)c1 [compound 486] |
| 2600 | CCC(=O)N1CCC(CC(=O)Nc2cc3c(cc2C(C)=O)OCO3)C1 (stereo not drawn) [compound 259] |
| 275 | CC(=O)c1cc2c(cc1NC(=O)CC1CCCN(C(=O)c3ccccn3)C1)OCO2 (stereo not drawn) [compound 507] |
| 1400 | COC(=O)c1cc2c(cc1NC(=O)CC1CCCN(C(C)=O)C1)OCO2 (stereo not drawn) [compound 480] |
| 44 | COCc1cccc(C(=O)N2CCC(CC(=O)Nc3cc4c(cc3C(C)=O)OCO4)CC2)c1 [compound 245] |

same assay, conditions: Table 9; read-out: hT2R54 IC50

| IC50 [nM] | Compound |
| --- | --- |
| 2260 | COc1cc2c(cc1NC(=O)CC1CCCCO1)OCO2 (stereo not drawn) [compound 521] |
| 2310 | CC(=O)c1cc2c(cc1NC(=O)Cc1ccco1)OCO2 [compound 523] |
| 900 | CC(=O)c1cc2c(cc1NC(=O)CC1CCCN(C(=O)OC(C)(C)C)C1)OCO2 (stereo not drawn) [compound 519] |
| 308 | COc1cc2c(cc1NC(=O)CC1CCCC1)OCO2 [compound 520] |

same assay, conditions: given in example heading; read-out: IC50

| IC50 [nM] | Compound |
| --- | --- |
| 16 | CCOC(=O)C1CN(C(=O)c2ccco2)CCN1CC(=O)Nc1cc2c(cc1C(C)=O)OCO2 (stereo not drawn) [compound 191, Ethyl 1-(2-((6-Acetylbenzo[d][1,3]dioxol-5-yl)amino)-2-oxoethyl)-4-(furan-2-carbonyl)piperazine-2-carboxylate] |

From patent US12295396B2, “Antagonists of T2R54 and compositions and uses thereof” (Firmenich Incorporated, priority 2018, dated 2025)
